# Results: PMC12195941, “Novel Micro-LC-MS/MS Method for the Quantification of Tenofovir and Its Active Metabolite Tenofovir-Diphosphate in Biological Matrices for Therapeutic Drug Monitoring” (Pharmaceuticals, 2025)
# How the values were obtained:
# [1] = design: method as in PMID 21118913, PMID 30137238, PMID 25065857; conditions: in red blood cells (RBC); cited from earlier work
# [2] = TFVDP stability in blood spiked without stabilizers (degradation by phosphatases); assay type: in vitro ADME; conditions: degrades to TFVMP and TFV
# Method: A series of experiments was conducted to evaluate this degradation by phosphatases and counteract it. TFVDP only (1 or 2 µg/mL) was added to blood or plasma; 50 µL aliquots were extracted in the presence of isotope-labeled internal standards, and the formation of TFV and […] was monitored, together with TFVDP degradation. […] The extent of the phenomenon is illustrated in Figure 3. The first attempt to reduce phosphatases activity was performing all the sample preparation procedures on ice bath. No significant improvement was observed.
# Figure 3 Extracted ion chromatograms overlay (A) recorded on the MRM transitions of TFV (B), TFVMP (C) and TFVDP (D) and their corresponding deuterated internal standards in an extracted sample (as described in paragraph 3.5). Blood sample diluted 1:5 with water and spiked with 520 ng/mL TFVDP in a non-stabilized sample (left) and with phosphatases inhibition (right). High peaks of TFMP were observed only after a short time (30 min) at room temperature without enzyme inhibition.
# [3] = Validation stability of TFV and TFVDP in spiked whole blood and sample extracts; assay type: in vitro ADME; conditions: for Stability, Sample extracts 24 h 10 °C: autosampler; for Stability, Sample extracts 24 h 10 °C / Stability, Blood 4 h room temp. / Stability, Blood freeze-thaw 5 cycles / Stability, Blood at −30 °C for 1 month: the values are: stability, % of nominal; for Stability, Blood at −30 °C for 1 month: blood diluted 1:5 with 1.25% ammonia
# Method: Samples were stable for 1 month at −30 °C, for 5 freeze–thaw cycles and for 24 h at 10 °C in the autosampler. Benchtop stability was evaluated for 4 h at room temperature with blood samples spiked with TFVDP only and the results were within 96.9 and 104.714 from nominal in stabilized conditions, while in the absence of the phosphatase inhibitor the degradation was, on average, 85% at all tested concentrations. Calibration curves were linear for both TFV and TFVDP, with correlation coefficients > 0.995.
# Spiked calibration standards (CC) and quality control (QC) samples were prepared in whole blood diluted 1:5 with ultrapure water containing 1.25% ammonia (v/v). TFV concentrations were as follows: 0–0.25–1–4–16–64–128–256 ng/mL (CC) and 0.75–15–210 ng/mL (QC Low, Medium and High, respectively). TFVDP concentrations were as follows: 0–0.5–2–8–32–128–256–512 ng/mL (CC) and 1.5–30–420 ng/mL (QC Low, Medium and High, respectively).
# Blank blood was frozen at −80 °C before use; therefore, cells were lysed. CCs and QCs were built in blood diluted 1 + 4 with water and alkalinized with 1.25% ammonia, for phosphatases inhibition. Patient samples received identical treatment before undergoing the sample preparation protocol, ensuring uniform composition across samples.
# The method for quantifying TFV and TFVDP in whole blood was validated in terms of selectivity, linearity, accuracy, precision, limits of quantification, sample stability under storage and processing conditions, extraction recovery, and matrix effects, in accordance with the April 2022 ICH guidelines, subsequently adopted by the FDA in November 2022 [38]. The analytical ranges to be validated were chosen based upon the expected concentrations as found in literature and from in-house preliminary experiments. Matrix effects were evaluated comparing the signal of theoretical QC concentrations prepared in mobile phase (taken as 100% recovery) against those obtained after spiking blank extracts at identical concentrations. Matrix factors were calculated for each analyte, and isotope-labelled internal standards were employed to correct for residual matrix influence.
# [4] = TFV and TFVDP levels in clinical samples (whole blood, plasma) of treated patients by micro-LC-MS/MS; assay type: in vivo; conditions: patient 10, tenofovir alafenamide 25 mg, 12 to 24 h after dosing
# Method: Blood samples were collected, with informed consent, from 11 HIV-infected patients treated with tenofovir, 12 to 24 h after dosing. Two patients (numbers 10 and 11) received tenofovir alafenamide 25 mg, the others being administered with tenofovir disoproxil fumarate 245 mg.
# Blood samples were collected from HIV-positive patients at the National Institute for Infectious Diseases “Prof Dr. Matei Bals”, with the approval of the Bioethical Committee (protocol code C10242/02.10.2024, approved 18 October 2024). All patients were under treatment with anti-retroviral drugs, and sampling was performed from 12 to 24 h after dosing.
# Blood samples (4 mL each) were collected using potassium EDTA (sampling tubes EDTAK3, 4.0 mL, Englober SRL, Brasov, Romania) or sodium citrate (9NC sampling tubes, BD, Plymouth, UK) as anticoagulants. Aliquots of 0.5 mL were used for plasma separation, by centrifugation (5 min, 3900 rpm), within 60 min from sampling. […] All samples were frozen at −30 °C until analyzed. […]
# Analyses were performed in positive electrospray ionization mode. The chromatographic trace 288.054/176.0 was used for TFV quantification, while TFVDP was monitored on the trace 447.942/176.0. Mass transitions 288.054/135.9 and 447.942/270.0 were also used for confirmation of the measured compounds. […]
# [5] = QC High (n = 4; TFV 210, TFVDP 420 ng/mL)
# [6] = QC Low (n = 4; TFV 0.75, TFVDP 1.5 ng/mL)
Stability of added diphosphate metabolite in blood [2],"Degradation in the absence of the phosphatase inhibitor ([3]; 4 h at room temperature, blood spiked with TFVDP only, average at all tested concentrations)","Stability, Sample extracts 24 h 10 °C ([3]; QC High (n = 4))","Stability, Blood 4 h room temp. ([3]; QC High (n = 4))","Stability, Blood freeze-thaw 5 cycles ([3]; QC High (n = 4))","Stability, Blood at −30 °C for 1 month [3, 5]","Stability, Sample extracts 24 h 10 °C ([3]; QC Low (n = 4))","Stability, Blood 4 h room temp. ([3]; QC Low (n = 4))","Stability, Blood freeze-thaw 5 cycles ([3]; QC Low (n = 4))","Stability, Blood at −30 °C for 1 month [3, 6]","Level in clinical sample, Blood [4]",SMILES,half-life [1]
unstable in blood,85%,94.3%,96.9%,95.4%,106%,105%,105%,111%,92.5%,,"C[C@H](Cn1cnc2c(N)ncnc21)OCP(=O)(O)OP(=O)(O)OP(=O)(O)O [TFVDP, tenofovir diphosphate]",17 days
,,90.7%,101%,111%,112%,94.4%,102%,114%,104%,BLQ,"C[C@H](Cn1cnc2c(N)ncnc21)OCP(=O)(O)O [TFV, Tenofovir]",
